Where a SMILES comes first, the peptide text is derived from it. [ ]: non-standard residue; d: D form.
Legend:
[1] = test system: U-87 cells; assay: TEM visualization of apoptotic cell death; assay type: cell-based, human; settings: 2.8 μM peptide
Procedure: Representative images of transmission electron microscopy (TEM) of untreated cells (FIG. 8A) or cells treated with 2.8 μM of D-Δ1-14N-Ter-Antp (FIG. 8B) are shown.

[2] = target: T1, Mitochondria-Bound Hexokinase 1 (HK-1) (Rattus norvegicus, UniProt P05708); assay: Detachment of mitochondria-bound HK-1-GFP in HeLa cells (confocal microscopy); assay type: cell-based; settings: HeLa cells expressing HK-1-GFP, 6 h
T1 construct: expressed in transfected cells; host or cells: HeLa cells
T1 sequence (P05708 1-918): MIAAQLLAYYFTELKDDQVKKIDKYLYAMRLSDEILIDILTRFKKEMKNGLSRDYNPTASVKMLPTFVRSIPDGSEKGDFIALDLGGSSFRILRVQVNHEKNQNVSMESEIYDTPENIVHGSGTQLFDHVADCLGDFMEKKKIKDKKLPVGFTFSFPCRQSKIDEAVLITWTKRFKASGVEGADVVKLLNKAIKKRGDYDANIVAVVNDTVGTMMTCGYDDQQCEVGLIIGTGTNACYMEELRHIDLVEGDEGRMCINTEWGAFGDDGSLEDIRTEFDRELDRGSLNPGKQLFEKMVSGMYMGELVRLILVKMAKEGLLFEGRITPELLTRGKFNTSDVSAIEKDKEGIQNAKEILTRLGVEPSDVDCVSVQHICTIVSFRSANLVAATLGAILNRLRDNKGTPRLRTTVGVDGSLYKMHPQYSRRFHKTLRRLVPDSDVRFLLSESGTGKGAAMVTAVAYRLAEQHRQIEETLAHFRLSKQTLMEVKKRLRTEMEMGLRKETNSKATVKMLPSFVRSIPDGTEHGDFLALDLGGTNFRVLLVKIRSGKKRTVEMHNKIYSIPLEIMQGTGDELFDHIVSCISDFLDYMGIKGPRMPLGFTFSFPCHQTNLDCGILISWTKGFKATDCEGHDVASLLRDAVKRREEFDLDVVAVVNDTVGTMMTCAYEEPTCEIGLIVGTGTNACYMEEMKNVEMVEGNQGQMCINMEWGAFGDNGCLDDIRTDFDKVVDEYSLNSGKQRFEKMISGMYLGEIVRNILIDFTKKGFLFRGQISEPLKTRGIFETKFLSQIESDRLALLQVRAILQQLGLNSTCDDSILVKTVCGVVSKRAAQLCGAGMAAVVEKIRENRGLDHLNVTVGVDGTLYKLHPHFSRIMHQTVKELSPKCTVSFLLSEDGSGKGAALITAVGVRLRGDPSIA
Procedure: To visualize HK detachment induced by the D-Δ(1-14) N-terminal-Antp peptide, HeLa cells (3×10^5) were grown on Poly-D-Lysine (PDL)-coated coverslips in a 60 mm dish and transfected with pEGFP-HK-I or with plasmid pEGFP. HK-I-GFP fusion protein, in which GFP was connected to the HK-I C-terminal (pEGFP-HK-I), was constructed using an EcoR1 restriction site to introduce GFP into the 3′ (at the stop codon) of HK1 in plasmid pcDNA3.1 by site-directed mutagenesis with overlapping PCR amplification, using the following primers: 5′-[…]-3; (forward, SEQ ID NO:24) and 5′-[…]-3; (reverse, SEQ ID NO:25).
After 48 h, cells were incubated for 6 h with a serum-free medium containing 0.4% DMSO or with the indicated concentration of D-Δ(1-14) N-Ter-Antp peptide. Cells were washed with PBS, fixed for 20 min with 4% paraformaldehyde prepared in PBS, rinsed for 30 min in PBS and cell imaging was carried out by confocal microscopy (Olympus 1×81).

[3] = test system: glioblastoma U-87 cells; assay: Mitochondrial membrane potential analysis (TMRM, FACS); assay type: cell-based, human; settings: 3 h incubation
Procedure: U-87 cells were incubated with the indicated concentrations of D-Δ1-14N-Ter-Antp (SEQ ID NO:9), washed with PBS, incubated with or without the potentiometric fluorescent dye TMRM (200 nM, 20 min), washed with PBS and subjected to FACS analysis. FCCP, allowing for Δψ dissipation, served as a control.
VDAC1 is a key component in regulating the energy production of the cell. It is known that cancer cells are characterized by elevated energy demand. The effects of D-Δ(1-14) N-Ter-Antp on the mitochondrial inner membrane polarization and cellular ATP level were examined using glioblastoma U-87 cells. U-87 cells were incubated for 3 h with the various concentrations of D-Δ1-14N-Ter-Antp or with FCCP (10 μM, control for depolarization) for 1 h.

[4] = test system: CLL-derived lymphocytes; assay: Cell death of CLL-derived lymphocytes (PBMCs of CLL patients), PI staining and FACS; assay type: cell-based, human; settings: 90 min incubation, PI staining, FACS, read-out: IC50, induction of cell death, CLL
Procedure: PBMCs were isolated from venous blood of the CLL patients by Ficoll-Paque PLUS (GE Healthcare, Israel) density gradient centrifugation, as follows. Venous blood (10-20 ml) was drawn from CLL patients with satisfying diagnostic criteria for CLL or from normal adult donors. Blood was collected into heparin tubes and was diluted 1:1 with balance solution composed of two stock solutions, A (1% D-glucose, 50 mM CaCl2, 0.98 mM MgCl2, 5.4 mM KCl and 0.145 M Tris-HCl, pH 7.6) and B (0.14 M NaCl) in a 1:9 ratio. The resulting mix was carefully layered on Ficoll-Paque Plus (10 ml of diluted blood:15 ml Ficoll) in 50 ml conical tubes. The tubes were centrifuged at 400×g (with minimal acceleration and deceleration) and 18-20° C. for 40 min. […] Cells were counted by a Countess Automated Cell Counter (Invitrogen).
PBMCs (4×10^5 or 8×10^5 cells/sample) were incubated in 200 μl serum-free medium with the examined peptide for 90 min at room temperature and centrifuged (500×g, 5 min) Cell death was analyzed by PI staining and flow cytometer (Beckton-Dickinson) and BD Cell Quest Pro software. Apoptotic cell death was also analyzed by PI and annexin V-FITC staining (Zaid H et al. 2005. 12:751-760), and by acridine orange and ethidium bromide staining and confocal microscopy (Olympus 1×81). […]

`CC[C@@H](C)[C@@H](NC(=O)[C@@H](CCCCN)NC(=O)[C@H](NC(=O)[C@@H](CCC(N)=O)NC(=O)[C@@H](CCCNC(=N)N)NC(=O)[C@@H](CC(C)C)NC(=O)CNC(=O)[C@@H](Cc1ccccc1)NC(=O)CNC(=O)[C@@H](Cc1ccc(O)cc1)NC(=O)CNC(=O)[C@@H](CCCCN)NC(=O)[C@H](NC(=O)[C@@H](Cc1ccccc1)NC(=O)[C@H](NC(=O)[C@@H](CC(=O)O)NC(=O)[C@H](N)CCCNC(=N)N)C(C)C)[C@H](C)O)[C@H](C)CC)C(=O)N[C@H](Cc1c[nH]c2ccccc12)C(=O)N[C@H](Cc1ccccc1)C(=O)N[C@H](CCC(N)=O)C(=O)N[C@H](CC(N)=O)C(=O)N[C@H](CCCNC(=N)N)C(=O)N[C@H](CCCNC(=N)N)C(=O)N[C@H](CCSC)C(=O)N[C@H](CCCCN)C(=O)N[C@H](Cc1c[nH]c2ccccc12)C(=O)N[C@H](CCCCN)C(=O)N[C@H](CCCCN)C(=O)O` [D-Δ(1-14) N-Ter-Antp, ALL D-RDVFTKGYGFGL RQIKIWFQNRRMKWKK] (H-[dR][dD][dV][dF][dT][dK]G[dY]G[dF]G[dL][dR][dQ][dI][dK][dI][dW][dF][dQ][dN][dR][dR][dM][dK][dW][dK][dK]-OH) was tested, and the “apoptotic morphology by TEM” value [1] was “typical morphologic changes associated with apoptosis”, the “HK-1-GFP detachment from the mitochondria” value [2] was “diffusion of HK-1-GFP out into the cytosol is observed” and the “mitochondrial inner membrane polarization” value [3] was “induced mitochondrial inner membrane depolarization”. It also gave an IC50 [4] of 1.3 ± 0.1 µM.

— patent publication US9758559B2, “Short peptides derived from VDAC1, compositions and methods of use thereof” (B.G. NEGEV TECHNOLOGIES AND APPLICATIONS LTD., AT …, priority 2013, dated 2017)
